{
  "source": "patent US20070123462A1",
  "about": "“Effects of tissue transglutaminase on beta-amyloid-induced apoptosis” (Cornell Research Foundation, Inc., priority 2005, published 2007)",
  "key": {"caspase-3": {"system": "caspase-3", "experiment": "Caspase activation immunoblot in SH-SY5Y cells", "assay_type": "cell-based, human", "excerpt": "FIGS. 6A-B depict characterization of β-amyloid1-42. […] The β-amyloid was either directly reconstituted in Me2SO or was pre-treated with hexafluoroisopropanol (HFIP) and dessicated prior to reconstitution in Me2SO. […] Activated caspase-3 was detected using a rabbit polyclonal antibody from Cell Signaling (Danvers, Mass.).\nFIGS. 9A-B show changes in transglutaminase activity during β-amyloid-induced apoptosis. […] Experimental conditions in FIG. 9B were similar to those described in FIG. 9A, except cells were treated with H2O2 rather than BA for 24 hours."}, "TGase [1]": {"system": "TGase", "experiment": "In vivo (cellular) transamidation assay with 5-(biotin-amido)-pentylamine", "assay_type": "cell-based, human", "experimental": "The in vivo transamidation assays were performed as previously described in Antonyak et al., J. Biol. Chem. 279:41461-41467 (2004), which is hereby incorporated by reference in its entirety. […] The membranes were then incubated with horseradish-peroxidase-conjugated streptavidin (2 mg/ml; Pierce Inc., Rockford, Ill.) (diluted 1:2000) in BBST for 2 hours at room temperature, followed by washing (three times) for 20 minutes with BBST."}, "[2]": {"system": "RA-differentiated SH-SY5Y cells", "assay_type": "cell-based", "experimental": "(§1) To induce differentiation, human SH-SY5Y cells were cultured in phenol red-free, low serum media with 20 μM all-trans-retinoic acid (RA; Sigma) every other day for 6 days. When assaying cell viability, the cells were plated in 96-well dishes at a seeding density of approximately 5×10^3 cells per well, differentiated with 20 μM RA, and then treated with either media alone, 25 μM monodansyl cadaverine (MDC), β-amyloid1-42 (2.5, 5, and 10 μM) (HPLC-purified from American Peptide, Sunnyvale, Calif.), or with 25 μM MDC and different concentrations of β-amyloid1-42. Typically, β-amyloid1-42 was reconstituted in […] and then further diluted into cell culture media, using conditions that have been reported to give rise primarily to β-amyloid oligomers and large aggregates rather than fibrils (Dahlgren et al., J. Biol. Chem. 277:32046-32053 (2002); Stine et al., J. Biol. Chem. 278:11612-11622 (2003), which are hereby incorporated by reference in their entirety). However, in some cases, β-amyloid1-42 was first dissolved in 100% hexafluoroisopropanolol to ensure the elimination of any preexisting aggregates ((Dahlgren et al., J. Biol. Chem. 277:32046-32053 (2002); Stine et al., J. Biol. Chem. 278:11612-11622 (2003), which are hereby incorporated by reference in their entirety) and then this solvent was removed by evaporation prior to reconstituting the peptide in Me2SO. Cells were incubated with the reconstituted β-amyloid1-42 for 48 hours and cell viability was then assayed by the reduction of 3-(4,5-dimethylthiazole-2-yl)-2,5-diphenyltetrazolium bromide (MTT), as previously described in Miller et al., Brain Res. 963:43-56 (2003), which is hereby incorporated by reference in its entirety. The effects of H2O2 (10-30 μM) on cell viability were assayed in a similar manner (Tamagno et al., Exp Neurol 180:144-155 (2003), which is hereby incorporated by reference in its entirety). Values for untreated controls were set at 100% viability and each treatment was assessed as a percentage of the control values (+/−SD). Each treatment was performed in triplicate and evaluated by using a one-way analysis of variation (ANOVA) with Turkey's post hoc analysis to determine differences between the groups with the a value set at 0.05."}, "c-Jun kinase (JNK)": {"system": "c-Jun kinase (JNK)", "experiment": "c-Jun kinase (JNK) activity in β-amyloid-treated cells", "assay_type": "cell-based, human", "conditions": "β-amyloid1-42-treated cells"}, "guinea pig liver TGase": {"target": "T1, guinea pig liver TGase (Cavia cutleri, UniProt P08587)", "T1 construct": "0.1 μg of guinea pig liver TGase (Sigma); purchased Sigma; host or cells: guinea pig liver", "T1 sequence (P08587 2-690)": "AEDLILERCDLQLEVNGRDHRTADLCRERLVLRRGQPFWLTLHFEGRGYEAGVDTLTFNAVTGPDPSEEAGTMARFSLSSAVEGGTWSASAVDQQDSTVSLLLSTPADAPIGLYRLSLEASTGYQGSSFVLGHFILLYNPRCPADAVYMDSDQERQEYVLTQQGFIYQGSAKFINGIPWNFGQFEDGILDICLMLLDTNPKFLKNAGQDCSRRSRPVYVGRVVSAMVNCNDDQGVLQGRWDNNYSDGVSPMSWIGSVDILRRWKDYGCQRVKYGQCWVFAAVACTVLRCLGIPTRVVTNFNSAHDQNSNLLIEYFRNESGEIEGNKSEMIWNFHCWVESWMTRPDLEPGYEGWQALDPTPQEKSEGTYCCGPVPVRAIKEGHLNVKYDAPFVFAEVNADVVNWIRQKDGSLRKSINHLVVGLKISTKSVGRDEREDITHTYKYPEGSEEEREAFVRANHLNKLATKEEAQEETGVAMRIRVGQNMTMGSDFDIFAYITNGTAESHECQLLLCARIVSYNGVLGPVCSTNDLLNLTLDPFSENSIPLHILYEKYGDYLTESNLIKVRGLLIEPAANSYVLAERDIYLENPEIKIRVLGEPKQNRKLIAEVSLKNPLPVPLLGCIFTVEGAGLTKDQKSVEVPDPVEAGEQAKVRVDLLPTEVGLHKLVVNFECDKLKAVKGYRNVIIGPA", "experiment": "In vitro transamidation (cross-linking) of β-amyloid1-42 by TGase, immunoblot", "assay_type": "biochemical", "experimental": "FIGS. 11A-B illustrate examination of the cross-linking of β-amyloid by TGase.\nThe in vitro transamidation reactions were performed with one or all of the following: 1 μg of β-amyloid1-42, 0.1 μg of guinea pig liver TGase (Sigma), 500 μM CaCl2, and/or 50 μM MDC. Each reaction was performed in 50 mM Tris-HCl, pH 7.2, and incubated for 60 minutes at 37° C. The reactions were stopped by the addition of an equal volume of 20% SDS and 10 μl of Laemmeli's sample buffer and immediately boiled for 20 minutes to break up any non-covalent aggregation of β-amyloidi1-42. SDS-PAGE was performed on the samples, followed by blotting onto nitrocellulose membranes (Amersham). The membranes were immunoblotted with anti-β-amyloid antibody."}, "TGase [3]": {"system": "TGase", "experiment": "TGase expression and level in SH-SY5Y cells and cell fractions (immunoblot)", "assay_type": "cell-based, human", "experimental": "as §1, with “Cells were incubated with the reconstituted β-amyloid1-42 for 48 hours and cell viability was then assayed by the reduction of 3-(4,5-dimethylthiazole-2-yl)-2,5-diphenyltetrazolium bromide (MTT), as previously described in Miller et al., Brain Res. 963:43-56 (2003), which is hereby incorporated by reference in its entirety. The effects of H2O2 (10-30 μM) on cell viability were assayed in a similar manner (Tamagno et al., Exp Neurol 180:144-155 (2003), which is hereby incorporated by reference in its entirety).” left out, “(+/-SD).” for “(+/−SD).”, “0.05. SH-SY5Y cells, treated with and without β-amyloid1-42 for 48 hours, were lysed by freeze/thawing using liquid nitrogen in a 0.25 M sucrose solution containing 1 mM dithiothreitol, 1 μg/ml aprotinin, 1 μg/ml leupeptin and 100 μM phenylmethylsulfonyl fluoride. […]” for “0.05.”"}, "SH-SY5Y cells": {"system": "SH-SY5Y cells", "experiment": "Nuclear condensation or blebbing apoptosis assay", "assay_type": "cell-based, human", "conditions": "5 μM β-amyloid1-42, 48 hours; compared to control cells", "excerpt": "Construction of the pcDNA3 Myc-tagged vector used herein has been described in Tu et al., J. Biol. Chem. 278:49293-49300 (2003), which is hereby incorporated by reference in its entirety. Insertion of the TGase cDNA into the vector was accomplished by performing BamHI and EcoRI restriction-site digestion of the previously generated pTRE TGase (wild-type) vector (Antonyak et al., J. Biol. Chem. 276:33582-33587 (2001), which is hereby incorporated by reference in its entirety) to excise the cDNA encoding wild-type TGase, followed by subcloning it into the pcDNA3 Myc-tagged vector using T4 DNA ligase (Invitrogen, Carlsbad, Calif.). The pcDNA3-Myc-TGase vector was used to generate the transamidation-defective (C277V) mutant with the Quikchange site-directed mutagenesis kit (Stratagene, La Jolla, Calif.). Each TGase construct was sequenced to confirm the presence or absence of the mutation. […]\nImmunofluorescence was also performed 48 hours after transient transfections with TGase constructs. […] Cells expressing the various TGase constructs were counted from three separate experiments (over 100 cells from each slide were scored) after β-amyloid1-42 treatment and the apoptotic rate was assessed relative to the percentage of apoptosis for untreated (transfected) cells. […]"}, "[4]": {"conditions": "H2O2 20 μM, 24 hours, RA-differentiated SH-SY5Y"}, "[5]": {"conditions": "2.5-10 μM β-amyloid1-42, 48 hours"}},
  "data": [
    {"compound": "OO", "note": "[H2O2, hydrogen peroxide]", "values": [
      {"measurement": "caspase activation", "setting": "caspase-3; 30 μM H2O2, 24 hours, RA-differentiated SH-SY5Y", "value": "resulted in caspase activation"},
      {"measurement": "cytosolic transamidation activity", "setting": "TGase [1]; H2O2, 24 hours", "value": "significant increase"},
      {"measurement": "reduction of cell viability", "setting": "[2]; [4]", "value": "30-40%"}
    ]},
    {"compound": "CN(C)c1cccc2c(S(=O)(=O)NCCCCCN)cccc12", "note": "[MDC, monodansyl cadaverine]", "values": [
      {"measurement": "effect of MDC on β-amyloid1-42 activation of caspases", "setting": "caspase-3; β-amyloid1-42-treated cells", "value": "did not block"},
      {"measurement": "effect of MDC on β-amyloid1-42 stimulation of c-Jun kinase (JNK) activity", "setting": "c-Jun kinase (JNK)", "value": "did not block"},
      {"measurement": "TGase-catalyzed oligomerization (transamidation) of β-amyloid1-42", "setting": "guinea pig liver TGase; 50 μM MDC, 0.1 μg TGase, 1 μg BA, 500 μM Ca2+, 60 minutes", "value": "completely eliminated"},
      {"measurement": "difference in cell viability in the presence or absence of MDC, 5 μM BA", "setting": "[2]; 25 μM MDC, 5 μM BA, 48 hours, p=0.027", "value": "significant difference"},
      {"measurement": "difference in cell viability in the presence or absence of MDC, 10 μM BA", "setting": "[2]; 25 μM MDC, 10 μM BA, 48 hours, p=0.022", "value": "significant difference"},
      {"measurement": "effect of MDC on H2O2-induced cytotoxicity", "setting": "[2]; [4]", "value": "greatly enhanced cytotoxicity"}
    ]},
    {"compound": "CC1=C(/C=C/C(C)=C/C=C/C(C)=C/C(=O)O)C(C)(C)CCC1", "note": "[RA, all-trans-retinoic acid]", "values": [
      {"measurement": "TGase expression", "setting": "TGase [3]; 20 μM RA, SH-SY5Y in low serum media", "value": "significant up-regulation"}
    ]},
    {"compound": "β-amyloid1-42: most abundant and naturally occurring form of β-amyloid; HPLC-purified from American Peptide", "values": [
      {"measurement": "apoptotic response read out by caspase-3 activation", "setting": "caspase-3; oligomeric β-amyloid1-42, 37° C.", "value": "induced an apoptotic response"},
      {"measurement": "levels of TGase in the membrane/particulate fractions", "setting": "TGase [3]; [5]", "value": "dramatically increased"},
      {"measurement": "TGase expression", "setting": "TGase [3]; β-amyloid1-42 48 hours, absence or presence of RA", "value": "no effect"},
      {"measurement": "production of BPA conjugates (transamidation activity) in the membrane/particulate fractions", "setting": "TGase [1]; [5]", "value": "marked enhancement"},
      {"measurement": "transamidation substrate for TGase in vitro", "setting": "guinea pig liver TGase; Ca2+ levels below 1 mM", "value": "effective transamidation substrate"},
      {"measurement": "percentage of cells undergoing apoptosis", "setting": "SH-SY5Y cells", "value": "increased"}
    ]}
  ]
}
